Results: ChEMBL document CHEMBL1129227, “Synthesis and in vitro cytotoxic activity of novel hexahydro-2H-pyrido[1,2-b]isoquinolines against human brain tumor cell lines” (1997)

Legend:
Format in all cases: functional
Settings in all cases: read-out: LC50 (the source's name)
T98G = test: Compound was evaluated for the in vitro cytotoxicity against T98G human glioblastoma cell line
D283 Med = test: Compound was evaluated for the in vitro cytotoxicity against […] Med human brain medulloblastoma tumor cell line
A 172 = test: Compound was evaluated for the in vitro cytotoxicity against A-172 human glioblastoma cell line

| SMILES | CC50 (T98G) [µM] | CC50 (D283 Med) [µM] | CC50 (A 172) [µM] |
| --- | --- | --- | --- |
| CC(C)[C@H]1CCN2Cc3ccccc3C[C@H]2[C@H]1/N=C/c1ccc(Cl)cc1 | 45 | 50 | 97 |
| CC(C)[C@H]1CCN2Cc3ccccc3C[C@H]2[C@H]1/N=C/c1ccccc1 | 222 | – | 226 |
| C=C(C)[C@H]1CCN2Cc3ccccc3C[C@H]2[C@@H]1NCC(F)(F)F | 172 | 40 | 157 |
| C=C(C)[C@H]1CCN2Cc3ccccc3C[C@H]2[C@H]1NCc1ccc(Cl)cc1 | 42 | 29 | 55 |
| C=C(C)[C@H]1CCN2Cc3ccccc3C[C@H]2[C@@H]1NCc1ccccc1 | 43 | 53 | 58 |
| C=C(C)[C@H]1CCN2Cc3ccccc3C[C@H]2[C@H]1O | – | 143 | 158 |
